# Assay results reported in patent publication US20060165744A1, “Combination liposomal formulations” (NeoPharm, Inc, priority 2003, published 2006).
# Experiments:
# [1] = Effect of mitoxantrone or doxorubicin loading on entrapment of paclitaxel in LEP-ETU; format: physicochemical
# Procedure: Mitoxantrone or doxorubicin (0.5 to 1.5 mg) was loaded into LEP-ETU.
# [2] = Percent entrapment of doxorubicin or mitoxantrone in reconstituted LEP (Sephardex G-25 column, UV absorbance); format: physicochemical
# Procedure: Either doxorubicin (0.5 to 1.5 mg/ml) or mitoxantrone (0.5 to 1.5 mg/ml) was dissolved in deionized water, and these solutions were employed to reconstitute the lyophilized LEP cakes. The drug to lipid ratio varied from 1:120 to 1:24 (wt/wt) for doxorubicin and 1:120 to 1:24 (wt/wt) for mitoxantrone. Following reconstitution, the liposomal preparation was subjected to column chromatography using Sephardex G-25 to separate the free doxorubicin or mitoxantrone from the drug bound to the liposomes. The pre and post column samples were solubilized in methanol and the absorbance values were measured at appropriate wavelengths. The absorbance of doxorubicin (480 nm) and mitoxantrone (660 nm) was measured in the formulations both prior to and after column chromatography, and the percent entrapment was calculated using the following equation: % entrapment=[absorbance of drug after column/absorbance of drug before column]×100
# [3] = system: SKVLB (Vincristine-resistant human ovarian) cells; assay: Cytotoxicity by sulforhodamine B assay, SKVLB; format: cell-based; settings: treated 48 hrs, read-out: GI50 values (mM) against drug-resistant cancer cell lines
# Procedure: (§1) SKVLB (Vincristine-resistant human ovarian) cells were obtained from Georgetown University and maintained in RPMI 1640 medium containing 10% heat-inactivated FBS, penicillin (100 units/mL) and streptomycin ([…]) with […] Vincristine. P388/ADR (Adriamycin-resistant murine leukemia) cells were purchased from National Cancer Institute (Frederick, Md.) and maintained in RPMI 1640 medium containing 10% heat-inactivated FBS, penicillin (100 units/mL) and streptomycin ([…]). SKVLB cells were cultured in drug-free media for at least a week before studies. The cells (10,000 cells/well for SKVLB and 25,000 cells/well for P388/ADR) were plated in a 96-well plate overnight and treated with doxorubicin, LEP or LEPD for 48 hrs. After incubation, the cytotoxicity was determined by a sulforhodamine B assay.
# [4] = system: P388/ADR (Adriamycin-resistant murine leukemia) cells; assay: Cytotoxicity by sulforhodamine B assay, P388/ADR; format: cell-based; settings: Mus musculus, treated 48 hrs, read-out: GI50 values (mM) against drug-resistant cancer cell lines
# Procedure: as §1
# [5] = system: P388/ADR cells; assay: Anti-tumor efficacy on tumor bearing mice (increase in lifespan); format: in vivo, CD2F1 female mice; settings: 1.0 mg/kg DOX, I.V. for five consecutive days
# Procedure: After 24 hours, mice were randomly divided into different treatment groups (5 mice/group) and vehicle controls or test article formulations were administered I.V. for five consecutive days. Injection volume was based on individual mouse body w eight. Mice were weighed prior to dosing on Days 1-5. […] Mean survival time (MST) was determined and the percent increase in lifespan (% ILS) was calculated as follows: % ILS=[(100×MST of Treatment Group)/(MST of Control Group)]−100% ILS≧25% is considered as a positive response.
structure (smiles),measurement,setting,value
"CC(=O)O[C@H]1C(=O)[C@@]2(C)[C@H]([C@H](OC(=O)c3ccccc3)[C@]3(O)C[C@H](OC(=O)[C@H](O)[C@@H](NC(=O)c4ccccc4)c4ccccc4)C(C)=C1C3(C)C)[C@]1(OC(C)=O)CO[C@@H]1C[C@@H]2O [Paclitaxel, paclitaxel]",Paclitaxel Entrapment (%) With DOX,[1]; Initial DOX 0.50 mg/mL,102%
same,Paclitaxel Entrapment (%) With DOX,[1]; Initial DOX 0.75 mg/mL,102%
same,Paclitaxel Entrapment (%) With DOX,[1]; Initial DOX 1.00 mg/mL,102%
same,Paclitaxel Entrapment (%) With DOX,[1]; Initial DOX 1.50 mg/mL,109%
"O=C1c2c(O)ccc(O)c2C(=O)c2c(NCCNCCO)ccc(NCCNCCO)c21 [MTO, mitoxantrone]",MTO % Entrapment UV 660 nm,[2]; Initial MTO concentration 0.50 mg/mL,97%
same,MTO % Entrapment UV 660 nm,[2]; Initial MTO concentration 0.75 mg/mL,99%
same,MTO % Entrapment UV 660 nm,[2]; Initial MTO concentration 1.00 mg/mL,100%
same,MTO % Entrapment UV 660 nm,[2]; Initial MTO concentration 1.50 mg/mL,101%
"COc1cccc2c1C(=O)c1c(O)c3c(c(O)c1C2=O)C[C@@](O)(C(=O)CO)C[C@@H]3O[C@H]1C[C@H](N)[C@H](O)[C@H](C)O1 [Doxorubicin (DOX), doxorubicin]",DOX % Entrapment UV 480 nm,[2]; Initial DOX concentration 0.50 mg/mL,93%
same,DOX % Entrapment UV 480 nm,[2]; Initial DOX concentration 0.75 mg/mL,92%
same,DOX % Entrapment UV 480 nm,[2]; Initial DOX concentration 1.00 mg/mL,90%
same,DOX % Entrapment UV 480 nm,[2]; Initial DOX concentration 1.50 mg/mL,78%
same,GI50,[3],0.016 mM
same,GI50,[4],0.015 mM
same,% ILS,[5],18.20%
